Experimental data: article PMC8445441, “Elucidating the mechanism by which synthetic helper peptides sensitize Pseudomonas aeruginosa to multiple antibiotics” (PLoS Pathogens, 2021)
Read-outs that look alike come from different tables or passages of the source.

Legend:
P. aeruginosa HM-214 = details: strain HM-214; antibiotic + D-11 (MICb/MICbc 128/4)
In short: (§1)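 Two-fold serial dilutions in MHB received an equal volume of bacteria (suspension about 1 × 10^6 CFU/mL). Plates were held 18 h at 37 °C, then read visually for growth. Triplicate, CLSI-based.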

[1] = system: clinical P. aeruginosa isolates; assay: microbe, parasite or virus in culture; details: Pseudomonas aeruginosa, 18 h, antibiotic alone
In short: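 Broth microdilution per CLSI in MHB, two-fold drug dilutions mixed with an equal volume of bacteria at about 1 × 10^6 CFU/mL. After 18 h at 37 °C, MIC taken as the lowest concentration with no visible growth; run in triplicate.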

P. aeruginosa ATCC27853 = assay: microbe, parasite or virus in culture; parameters: MICa: MIC of the antibiotic / MICac: MIC of the antibiotic in the combination: unit not given beside the values; details: strain ATCC27853
In short: as §1

P. aeruginosa PAK = assay: microbe, parasite or virus in culture; parameters: MICa: MIC of the antibiotic / MICac: MIC of the antibiotic in the combination: unit not given beside the values; details: strain PAK
In short: as §1

P. aeruginosa NR-31041 = assay: microbe, parasite or virus in culture; parameters: MICa: MIC of the antibiotic / MICac: MIC of the antibiotic in the combination: unit not given beside the values; details: strain NR-31041
In short: as §1

P. aeruginosa NR-31040 = assay: microbe, parasite or virus in culture; parameters: MICa: MIC of the antibiotic / MICac: MIC of the antibiotic in the combination: unit not given beside the values
In short: as §1

P. aeruginosa PA14 = assay: microbe, parasite or virus in culture; parameters: MICa: MIC of the antibiotic / MICac: MIC of the antibiotic in the combination: unit not given beside the values; details: strain PA14
In short: as §1

P. aeruginosa AUMC-Pa-2 = details: strain AUMC-Pa-2; antibiotic + D-11 (MICb/MICbc 64/4)
In short: as §1

P. aeruginosa AUMC-Pa-1 = details: strain AUMC-Pa-1; antibiotic + D-11 (MICb/MICbc 128/4)
In short: as §1

P. aeruginosa AUMC-Pa-6 = assay: microbe, parasite or virus in culture; details: strain AUMC-Pa-6
In short: as §1

P. aeruginosa AUMC-Pa-3 = assay: microbe, parasite or virus in culture; details: strain AUMC-Pa-3
In short: as §1

P. aeruginosa PAO1 = assay: microbe, parasite or virus in culture; details: PAO1
In short: as §1

P. aeruginosa AUMC-Pa-4 = assay: microbe, parasite or virus in culture; details: strain AUMC-Pa-4
In short: as §1

P. aeruginosa AUMC-Pa-5 = assay: microbe, parasite or virus in culture; details: strain AUMC-Pa-5
In short: as §1

[2] = antibiotic alone, unit not given
[3] = with D-11 at MICbc 4, unit not given
[4] = antibiotic + D-11 (MICb/MICbc 64/4)
[5] = antibiotic + D-11 (MICb/MICbc 128/4)

MIC ([1]; read-out: Antibiotic sensibility (MIC) of clinical P. aeruginosa isolate AUMC-Pa-1, strain AUMC-Pa-1): 16 µM | MIC ([1]; read-out: Antibiotic sensibility (MIC) of clinical P. aeruginosa isolate AUMC-Pa-2, strain AUMC-Pa-2): 8 µM | MIC ([1]; read-out: Antibiotic sensibility (MIC) of clinical P. aeruginosa isolate AUMC-Pa-3, strain AUMC-Pa-3): 8 µM | MIC ([1]; read-out: Antibiotic sensibility (MIC) of clinical P. aeruginosa isolate AUMC-Pa-4, strain AUMC-Pa-4): 16 µM | MIC ([1]; read-out: Antibiotic sensibility (MIC) of clinical P. aeruginosa isolate AUMC-Pa-5, strain AUMC-Pa-5): 8 µM | MIC ([1]; read-out: Antibiotic sensibility (MIC) of clinical P. aeruginosa isolate AUMC-Pa-6, strain AUMC-Pa-6): 8 µM | MIC ([1]; read-out: Antibiotic sensibility (MIC) of clinical P. aeruginosa isolate HM-214, strain HM-214): 8 µM | MIC ([1]; read-out: Antibiotic sensibility (MIC) of clinical P. aeruginosa isolate NR-31040, strain NR-31040): 8 µM | MIC ([1]; read-out: Antibiotic sensibility (MIC) of clinical P. aeruginosa isolate NR-31041, strain NR-31041): 8 µM | MICa: MIC of the antibiotic (P. aeruginosa ATCC27853; [2]): 8 | MICac: MIC of the antibiotic in the combination (P. aeruginosa ATCC27853; [3]): 1 | MICa: MIC of the antibiotic (P. aeruginosa PAK; [2]): 8 | MICac: MIC of the antibiotic in the combination (P. aeruginosa PAK; [3]): 1 | MICa: MIC of the antibiotic (P. aeruginosa NR-31041; [2]): 8 | MICac: MIC of the antibiotic in the combination (P. aeruginosa NR-31041; [3]): 1 | MIC (P. aeruginosa NR-31040; Pseudomonas aeruginosa, NR31040, 18 h, read-out: MICa: MIC of the antibiotic): 8 µM | MICac: MIC of the antibiotic in the combination (P. aeruginosa NR-31040; strain NR-31040, with D-11 at MICbc 4, unit not given): 0.5 | MICa: MIC of the antibiotic (P. aeruginosa PA14; [2]): 8 | MICac: MIC of the antibiotic in the combination (P. aeruginosa PA14; [3]): 1 | MICa: MIC of the antibiotic (P. aeruginosa AUMC-Pa-6; [2]): 8 | MICac: MIC of the antibiotic in the combination (P. aeruginosa AUMC-Pa-6; [3]): 2 | MICa: MIC of the antibiotic (P. aeruginosa AUMC-Pa-3; [2]): 8 | MICac: MIC of the antibiotic in the combination (P. aeruginosa AUMC-Pa-3; [3]): 1 | MIC (P. aeruginosa PAO1; Pseudomonas aeruginosa, PAO1, 18 h, read-out: MICa: the MIC of antibiotics, S3 Table, antibiotic alone): 4 µM | MICac: the MIC for the antibiotic in the combination (P. aeruginosa PAO1; S3 Table, with 2 μM D-11): 0.125 µM | MICac: the MIC for the antibiotic in the combination (P. aeruginosa PAO1; S3 Table, with 4 μM D-11): 0.0625 µM | MICa: MIC of the antibiotic (P. aeruginosa AUMC-Pa-4; [2]): 16 | MICac: MIC of the antibiotic in the combination (P. aeruginosa AUMC-Pa-4; [3]): 2 | MICa: MIC of the antibiotic (P. aeruginosa AUMC-Pa-5; [2]): 8/8 | MICac: MIC of the antibiotic in the combination (P. aeruginosa AUMC-Pa-5; [3]): 8/8
Compound: CN(C)[C@@H]1C(O)=C(C(N)=O)C(=O)[C@@]2(O)C(O)=C3C(=O)c4c(O)c(NC(=O)CN5CCCC5)cc(F)c4C[C@H]3C[C@@H]12 [Eravacycline]
FICI (P. aeruginosa HM-214): 0.281 | FICI (P. aeruginosa ATCC27853; antibiotic + D-11 (MICb/MICbc 32/4)): 0.250 | FICI (P. aeruginosa PAK; [4]): 0.188 | FICI (P. aeruginosa NR-31041; [4]): 0.188 | FICI (P. aeruginosa NR-31040; strain NR-31040, antibiotic + D-11 (MICb/MICbc 128/4)): 0.094 | FICI (P. aeruginosa PA14; [5]): 0.156 | FICI (P. aeruginosa AUMC-Pa-2): 0.313 | FICI (P. aeruginosa AUMC-Pa-1): 0.156 | FICI (P. aeruginosa AUMC-Pa-6; [4]): 0.313 | FICI (P. aeruginosa AUMC-Pa-3; [5]): 0.156 | FICI (P. aeruginosa PAO1; S3 Table, antibiotic + 2 μM D-11): 0.094 | FICI (P. aeruginosa AUMC-Pa-4; [5]): 0.156 | FICI (P. aeruginosa AUMC-Pa-5; [4]): 1.063
